Assay results taken from patent US6569867B2, “Polyketide derivatives” (Kosan Biosciences, Inc., priority 1999, dated 2003).
Where “and” joins values, the source holds several entries; their conditions need not be identical. Identical values can stand only once. Like-named read-outs stand apart in the source and are kept apart here.

Columns and labels:
[1] = test system: SH-SY5Y human neuroblastoma cells; test: Nerve growth (neurite length) assay; type: cell-based
Method: Table 9 summarizes the results of nerve growth as using SH-SY5Y human neuroblastoma cells according to Gold et al., Exp Neuro, 147(2): 269-87 (1997) which is incorporated herein by reference. The assay measures the mean neurite length in […] that were induced at 0.1 nM and 10 nM of the compound of interested after 96 or 168 hours.

FKBP-12 = target: T1, FKBP-12 (Homo sapiens, UniProt P62942); test: FKBP-12 binding assay ([3H]FK-506 competition)
T1 construct: purchased Sigma; host or cells: E. coli
Method: Calcineurin (“>95% pure by SDS/PAGE”) was obtained from Calbiochem. Neutravidin® coated strip plates, pre-blocked with SuperBlock® were obtained from Pierce. […] Synthetic RII peptide (^+[…]^-) was obtained from Peptides International (Louisville, […].com). […] ATP, cAMP, the catalytic subunit of protein kinase A, bovine brain calmodulin and human FKBP, expressed in E. coli were obtained from Sigma. […] The mixture was incubated for 2 hours at 0° C., the solution was aspirated from the wells, and each well was quickly washed with 300 uL of ice cold PBS-tween. Wells were broken apart, placed in scintillation vials with 10 mL of Scintiverse BD and bound radioactivity was quantitated by scintillation counting. […] to calculate the Kd.

Human 3A4 P-450 = target: T2, Human 3A4 P-450 (Homo sapiens, UniProt P08684); test: P450 stability assay with 3A4 P-450 supersomes; type: in vitro ADME; settings: 20 μM FK species, 200 pmole P-450/mL, 37° C.
T2 construct: purchased Gentest Corporation (Woburn, Mass.) P207
Method: A mixture containing FK species and a NADPH regenerating system was pre-incubated at 37° C. for 10 minutes before the reaction was commenced by the addition of the P-450 supersomes. The final concentrations of the components were: 100 mM potassium phosphate, pH 7.4; 3.3 mM MgCl2; 3.3 mM glucose-6-phosphate; 1.3 mM NADP; 0.4 U/mL glucose-6-phosphate dehydrogenase; 200 pmole P-450/mL; and 20 μM FK species. Control reactions contained “mock” supersomes without 3A4 P-450 activity. Human 3A4 P-450+Reductase supersomes (cat #P207) and vector control “mock” supersomes without 3A4P-450 (cat #P201) were obtained from Gentest Corporation (Woburn, Mass.).
Following addition of supersomes or mock supersomes, reactions were terminated at 0 minutes (immediately upon addition of P-450) and 30 minutes by addition of acetonitrile containing 0.1% acetic acid to 20% final acetonitrile concentration, followed by freezing immediately on dry ice. For reactions containing the 13-desmethoxy-13-methyl-32-(2-hydroxyethylindolyl)-FK analog, an equal volume of MeOH was added following addition of acetonitrile and the samples were immediately frozen on dry ice. The samples were clarified by centrifugation at 13,000 rpm for 5 minutes at 4° C. in a micro centrifuge prior to HPLC analysis.
The following HPLC program was employed: Column =MetaChem 0.46×15 cm intersil C18 column (5 μm); Solvent A=0.1% HOAc in water; Solvent B=0.1 % HOAc in acetonitrile. Detection=UV (210 nm) and ELSD. Gradient: Equilibration with 20% B; injection (up to 1 ml), hold at 20% B for 5 minutes; linear gradient to 50% B in 5 minutes; linear gradient to 100% B in 20 minutes; to 20% B in 1 minute; hold at 20% B for 10 minutes to equilibrate.
There was no change in peak area after 30 minutes when the FK analogs were incubated with mock supersomes.

calcineurin = calcineurin (Bos taurus, UniProt P48452+P62942+P63099); test: Calcineurin phosphatase inhibition assay (FKBP-compound complex); type: biochemical; settings: 15 nM calcineurin, 30 nM calmodulin, 1 uM phospho-RII peptide, 30° C.
Method: The catalytic subunit of protein kinase A was used to transfer the labeled phosphate from [γ-^32P]ATP to […] of the RII peptide. […] Fractions were collected and monitored by scintillation counting. […] The columns were prepared by resuspending the resin in water such that there was one volume of water above each volume of settled resin. The slurry (1 mL) was then pipetted into each column, followed by 10 mL of water. The bed volume was verified, then each column was washed with 1 mL 1 N NaOH, 2 mL 1 N HCl, and 4 mL water. Quenched reaction mixtures were applied to the columns, washed twice with 750 uL of water and the eluate was collected directly into scintillation vials. Scintiverse BD (15 mL) was added to each vial, and ^32PO4 was quantitated by scintillation counting. […] Following a 30 minute preincubation, reactions were initiated by addition of the phospho-RII peptide substrate to 1 uM and incubated at 30° C. Aliquots were removed at 3 and 35 minutes, quenched, and PO4 release was measured as described above.

[2] = cited from earlier work

Compound | P450 % Stability (at 30 min) (Human 3A4 P-450) | Kd (FKBP-12) [nM] | Neurite Length at 0.1 nM 96 h [1] [µm] | Neurite Length at 0.1 nM 168 h [1] [µm] | other results
18-ene-20-oxa-13-desmethoxy-13-methyl-FK-520 | – | – | 144 | 184 | Neurite Length at 10 nM 96 h [1]: 104 µm; Neurite Length at 10 nM 168 h [1]: 135 µm
32-[1-(2-Hydroxyethyl)-indol-5-yl]-13-desmethoxy-FK-520 | 72% and 77% | – | – | – | Kd (FKBP-12; competition with 0.5 μM [3H]FK-506, 2 hours at 0° C., Kd of [3H]FK-506 assumed to be 0.4 nM): 16.3 nM and 10.4 nM; Ki (calcineurin): < 15 nM and 22 nM
CC[C@@H]1/C=C(\C)C(O)[C@H](C)C[C@H](OC)[C@H]2O[C@@](O)(C(=O)C(=O)N3CCCC[C@H]3C(=O)O[C@H](/C(C)=C/[C@@H]3CC[C@@H](O)[C@H](OC)C3)[C@H](C)[C@@H](O)CC1=O)[C@H](C)C[C@@H]2C (stereo partly drawn) [13-desmethoxy-13-methyl-18-hydroxyl-FK-520] | – | ~1 | 168 | 191 | Neurite Length at 10 nM 96 h [1]: 132 µm; Neurite Length at 10 nM 168 h [1]: 165 µm
C=CC[C@@H]1/C=C(\C)C[C@H](C)C[C@H](OC)[C@H]2O[C@@](O)(C(=O)C(=O)N3CCCC[C@H]3C(=O)O[C@H](/C(C)=C/[C@@H]3CC[C@@H](O)[C@H](OC)C3)[C@H](C)[C@@H](O)CC1=O)[C@H](C)C[C@@H]2OC.O [FK-506, tacrolimus] | – | – | – | – | excreted unchanged in urine ([2]; in vivo): less than 1%; half-life for distribution ([2]; in vivo): 54 min; bioavailability with co-administration of ketoconazole ([2]; ketoconazole, a drug that inhibits P450 3A): doubles; mean bioavailability of the oral dosage form ([2]; oral, range 5 to 65%): 27%
Nerve Growth Factor: protein neurotrophic molecule used as comparator in the neurite length assay | – | – | 143 | 169 | –

Continued, in another order:

P450 % Stability (at 30 min) (Human 3A4 P-450) | Kd (FKBP-12) [nM] | Compound | Neurite Length at 0.1 nM 96 h [1] [µm] | Neurite Length at 0.1 nM 168 h [1] [µm] | other results
26% | 1.6 | CC[C@@H]1/C=C(\C)C[C@H](C)C[C@H](OC)[C@H]2O[C@@](O)(C(=O)C(=O)N3CCCC[C@H]3C(=O)O[C@H](/C(C)=C/[C@@H]3CC[C@@H](O)[C@H](OC)C3)[C@H](C)[C@@H](O)CC1=O)[C@H](C)C[C@@H]2C [13-desmethoxy-13-methyl-FK-520] | – | – | –
35% | 0.4 | CC[C@@H]1/C=C(\C)C[C@H](C)C[C@H](OC)[C@@H]2CC[C@@H](C)[C@@](O)(O2)C(=O)C(=O)N2CCCC[C@H]2C(=O)O[C@H](/C(C)=C/[C@@H]2CC[C@@H](O)[C@H](OC)C2)[C@H](C)[C@@H](O)CC1=O [13-desmethoxy-FK-520] | – | – | –
46% | 0.4 | CC[C@@H]1/C=C(\C)C[C@H](C)C[C@H](OC)[C@H]2O[C@@](O)(C(=O)C(=O)N3CCCC[C@H]3C(=O)O[C@H](/C(C)=C/[C@@H]3CC[C@@H](O)[C@H](OC)C3)[C@H](C)[C@@H](O)CC1=O)[C@H](C)C[C@@H]2OC [FK-520, ascomycin, reference compound] | – | – | –
